US20030224978A1, “Compounds and methods for modulating apoptosis” (McGill University, priority 1996, published 2003)
“Also recorded” adds a separate entry of the source. Positions of bridges follow the written chain, without caps; N, C: chain ends. Residues, ends and D or L forms follow the SMILES beside them.

Key:
[1] = tested on: human skin; experiment: Human skin permeability, penetration of fluorescent markers, Franz Cell apparatus; details: compared to N-Ac-CHGVC-NH2
Protocol: A third cell adhesion assay involves evaluating the effect of a cyclic peptide on permeability of adherent epithelial and/or endothelial cell layers. For example, the effect of permeability on human skin may be evaluated. Such skin may be derived from a natural source or may be synthetic. Human abdominal skin for use in such assays may generally be obtained from humans at autopsy within 24 hours of death. Briefly, a cyclic peptide and a test marker (e.g., the fluorescent markers Oregon Green™ and Rhodamine Green™ Dextran) may be dissolved in a sterile buffer, and the ability of the marker to penetrate through the skin and into a receptor fluid may be measured using a Franz Cell apparatus (Franz, Curr. Prob. Dermatol. 7:58-68, 1978; Franz, J. Invest. Dermatol. 64:190-195, 1975). In general, a modulating agent that enhances the permeability of human skin results in a statistically significant increase in the amount of marker in the receptor compartment after 6-48 hours in the presence of 500 μg/mL modulating agent. This assay evaluates the effect of a modulating agent on E-cadherin mediated cell adhesion.
Abdominal skin from humans at autopsy within 24 hours of death was used in these assays. The effect of N-Ac-CHAVC-NH2 (SEQ ID NO:10) and N-Ac-CHGVC-NH2 (SEQ ID NO:20), used at a concentration of 500 μg/ml or 2.5 mg/ml, on the penetration of two fluorescent markers, Oregon Green 488 (charge −1, MW 386 daltons) and Rhodamine Green 3000 Dextran (no charge, MW 3000 daltons) through human skin was then evaluated utilizing a Franz Cell apparatus (Franz, Curr. Prob. Dermatol. 7:58-68, 1978; Franz, J. Invest. Dermatol. 64:190-195, 1975). The peptides and markers were dissolved in sterile phosphate buffer, pH 7.2, and phosphate buffer was used as the receptor fluid. 150 μl of solution containing 0.2 mg Oregon Green and 1.0 mg Rhodamine Green was used to evaluate 500 μg/ml peptide; 200 μl of solution containing 0.05 mg Oregon Green and 1.250 mg Rhodamine Green was used to evaluate 2.5 mg/ml peptide. The solution was placed on top of the epidermal side of the skin, and the penetration of the markers through the skin was assessed using a fluorescent spectrophotometric method (in a Perkin Elmer 650-105 Fluorescence Spectrophotometer, and comparing the reading to a standard curve) at 6, 12, 24, 36, and 48 hours after the start of the experiment. The fluorescent units were converted to a concentration unit of microgram/5 ml (volume of the receiver compartment) using a standard curve and regression analysis equations. The curve was linear for the concentrations tested for both markers (r^2=1 for OrG and 0.997 for RhG). For each peptide and marker combination, the experiment was performed in triplicate.

[2] = target: L1 (Homo sapiens, UniProt P32004); experiment: Neurite outgrowth of mouse cerebellar neurons on 3T3 cells expressing L1 (Example 2); type: cell-based; design: expressed in transfected cells; host or cells: 3T3 cells; details: 500 μg/mL
Sequence of L1 (P32004 20-1257): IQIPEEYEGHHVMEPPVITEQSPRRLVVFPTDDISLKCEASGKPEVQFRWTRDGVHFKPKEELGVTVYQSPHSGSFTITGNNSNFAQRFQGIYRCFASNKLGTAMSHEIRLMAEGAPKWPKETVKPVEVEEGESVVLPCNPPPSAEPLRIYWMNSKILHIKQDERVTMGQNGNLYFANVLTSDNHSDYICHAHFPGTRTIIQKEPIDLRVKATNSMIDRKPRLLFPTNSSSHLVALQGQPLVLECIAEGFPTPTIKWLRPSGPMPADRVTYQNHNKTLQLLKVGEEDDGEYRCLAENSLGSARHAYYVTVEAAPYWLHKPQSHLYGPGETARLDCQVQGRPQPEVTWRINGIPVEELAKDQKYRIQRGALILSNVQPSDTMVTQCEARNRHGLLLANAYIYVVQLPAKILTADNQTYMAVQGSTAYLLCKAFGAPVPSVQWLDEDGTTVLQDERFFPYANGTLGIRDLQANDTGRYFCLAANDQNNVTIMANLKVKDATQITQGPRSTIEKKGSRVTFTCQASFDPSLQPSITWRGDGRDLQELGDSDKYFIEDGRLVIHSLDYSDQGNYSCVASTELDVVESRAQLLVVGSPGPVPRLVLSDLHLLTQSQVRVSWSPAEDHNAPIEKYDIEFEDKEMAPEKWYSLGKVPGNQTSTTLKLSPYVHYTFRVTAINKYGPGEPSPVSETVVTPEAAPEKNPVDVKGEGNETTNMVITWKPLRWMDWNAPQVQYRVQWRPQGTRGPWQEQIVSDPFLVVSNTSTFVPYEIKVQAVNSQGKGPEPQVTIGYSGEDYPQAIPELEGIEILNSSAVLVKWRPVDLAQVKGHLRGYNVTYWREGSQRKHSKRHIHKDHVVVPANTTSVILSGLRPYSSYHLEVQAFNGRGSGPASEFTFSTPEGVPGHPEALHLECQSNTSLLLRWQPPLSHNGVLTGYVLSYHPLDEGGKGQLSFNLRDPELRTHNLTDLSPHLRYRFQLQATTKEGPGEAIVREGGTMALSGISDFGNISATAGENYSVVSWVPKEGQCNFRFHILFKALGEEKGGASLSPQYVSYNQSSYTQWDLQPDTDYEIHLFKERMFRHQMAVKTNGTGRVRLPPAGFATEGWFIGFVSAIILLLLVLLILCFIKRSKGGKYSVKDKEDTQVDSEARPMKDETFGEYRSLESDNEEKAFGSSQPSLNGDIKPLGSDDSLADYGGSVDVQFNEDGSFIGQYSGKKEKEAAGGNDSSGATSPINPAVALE

[3] = tested on: control 3T3 cells; experiment: Neurite outgrowth of rat cerebellar neurons on control 3T3 cells (Example 14); type: cell-based; details: increasing concentrations
Protocol: Cell culture and neurite outgrowth assays. Co-cultures of cerebellar neurons on monolayers of control 3T3 cells and monolayers of transfected 3T3 cells that express physiological levels of chick N-cadherin or human L1 were established as previously described (Williams et al., Neuron 13:583-594, 1994). In brief, 80,000 3T3 cells (control and transfected) were plated into individual chambers of an eight-chamber tissue culture slide coated with polylysine and fibronectin and cultured in DMEM/10% FCS. After 24 hours, when confluent monolayers had formed, the medium was removed and 3000 cerebellar neurons isolated from post-natal day 2-3 rats were plated into each well in SATO media (Doherty et al., Nature 343:464-466, 1990) supplemented with 2% FCS. All of the test peptides were added immediately before the neurons as a 2×stock prepared in SATO/2% FCS. […] The mean length of the longest neurite per cell was measured for 150-200 neurons sampled in replicate cultures as previously described (Williams et al., Neuron 13:583-594, 1994). […] Dose-response curves were evaluated and the EC50 values determined.
Effects of cyclic HAV peptides on N-cadherin function. […] The cells were then fixed and the length of the longest neurite on 150-200 neurons was determined by standard assay, as described above. […]

[4] = tested on: OVCAR-3; experiment: Disruption of human ovarian cancer cell (OVCAR-3) adhesion; type: cell-based; details: for OVCAR3 cell morphology: 24 hours
Protocol: The human ovarian cancer cell line OVCAR-3, which expresses E-cadherin, was used in these experiments. Cells were cultured in RPMI supplemented with insulin and containing 20% FCS. Cells were grown in T-250 culture flasks and maintained by periodic subculturing. Cells were harvested from flasks and seeded in individual wells of 96-well culture dishes (surface area of each well was 0.32 cm^2) at a density of 50,000 cells per well in 0.1 ml media containing the cyclic peptides (at concentrations of 1, 0.1, or 0.01 mg/ml). Media control wells were also established. Cultures were evaluated periodically by microscopic examination under both bright field and phase contrast conditions, and were maintained for 48 hours.

Compound | effect on penetration of Oregon Green through the skin, in words ([1]; 500 μg/ml) | effect on penetration of Rhodamine Green through the skin, in words ([1]; 500 μg/ml) | effect on penetration of Oregon Green through the skin, in words ([1]; 2.5 mg/ml) | effect on penetration of Rhodamine Green through the skin, in words ([1]; 2.5 mg/ml) | effect on neurite outgrowth on 3T3 cells expressing L1 [2] | effect on neurite extension over control 3T3 cells [3] | OVCAR3 cell morphology ([4]; 100 μg/ml) | OVCAR3 cell morphology ([4]; 1 mg/ml) | effect on OVCAR-3 adhesion ([4]; 1, 0.1, or 0.01 mg/ml, up to 48 hours)
CC(=O)N[C@H]1CSSC[C@@H](C(N)=O)NC(=O)[C@H](C(C)C)NC(=O)[C@H](C)NC(=O)[C@H](Cc2c[nH]cn2)NC1=O [N-Ac-CHAVC-NH2, N-Ac-Cys-His-Ala-Val-Cys-NH2] | slightly increased the penetration of Oregon Green | significantly increased | increased the penetration of Oregon Green | significantly increased | did not inhibit neurite outgrowth | no significant effect on neurite extension over control 3T3 cells; also recorded: had no effect on the basal growth over 3T3 cells | – | – | –
CC(=O)N[C@H]1CSSC[C@@H](C(N)=O)NC(=O)[C@H](CO)NC(=O)[C@H](C(C)C)NC(=O)[C@H](C)NC(=O)[C@H](Cc2c[nH]cn2)NC1=O [N-Ac-CHAVSC-NH2, N-Ac-Cys-His-Ala-Val-Ser-Cys-NH2] (Ac-CHAVSC-NH2; disulfide 1-6) | – | – | – | – | – | – | retract form one another | round up | disrupted OVCAR-3 adhesion
